Source: PMC5033074 (Nature chemical biology, 2016)
Like-named read-outs stand apart in the source and are kept apart here. Values belong to the molecule of their own block, whether it stands above or below them.

What was measured:
[1] = system: steady-state mRNA levels in Jurkat cells; test: gene expression analysis; format: cell-based, human; conditions: for effect on steady-state mRNA levels: 500 nM, 6h
CDK13-cyclin K = CDK13-cyclin K (Homo sapiens, UniProt Q14004); test: radiometric in vitro kinase assay; format: biochemical; conditions: relative to THZ531
Chain of CDK13-cyclin K (Q14004 694-1039 limits assumed): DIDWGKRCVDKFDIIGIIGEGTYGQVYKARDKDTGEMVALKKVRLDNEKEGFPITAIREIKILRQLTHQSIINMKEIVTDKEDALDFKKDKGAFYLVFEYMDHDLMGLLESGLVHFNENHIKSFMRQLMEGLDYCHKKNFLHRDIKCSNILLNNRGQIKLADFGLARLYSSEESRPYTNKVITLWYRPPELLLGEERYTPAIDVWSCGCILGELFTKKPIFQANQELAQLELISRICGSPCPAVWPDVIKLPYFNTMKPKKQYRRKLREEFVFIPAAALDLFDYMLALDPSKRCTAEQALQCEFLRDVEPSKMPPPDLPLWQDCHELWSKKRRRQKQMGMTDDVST
Chain of CDK13-cyclin K (O75909 1-267 partner limits assumed): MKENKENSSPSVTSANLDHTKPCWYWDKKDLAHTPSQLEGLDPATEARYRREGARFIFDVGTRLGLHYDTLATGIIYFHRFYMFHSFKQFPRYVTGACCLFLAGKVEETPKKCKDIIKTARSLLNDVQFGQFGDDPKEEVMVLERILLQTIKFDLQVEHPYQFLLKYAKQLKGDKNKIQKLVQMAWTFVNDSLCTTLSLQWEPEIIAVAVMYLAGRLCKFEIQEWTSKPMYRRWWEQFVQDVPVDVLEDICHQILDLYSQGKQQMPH

[2] = system: Jurkat T-cell acute lymphoblastic leukemia cells; test: Jurkat proliferation assay; format: cell-based, human; conditions: for antiproliferative activity in Jurkat cells: 72 hrs, CellTiter Glo
CDK9-cyclin T1 = CDK9-cyclin T1 (Homo sapiens, UniProt P50750); test: radiometric in vitro kinase assay; format: biochemical; conditions: compared with THZ531
Chain of CDK9-cyclin T1 (P50750 whole entry): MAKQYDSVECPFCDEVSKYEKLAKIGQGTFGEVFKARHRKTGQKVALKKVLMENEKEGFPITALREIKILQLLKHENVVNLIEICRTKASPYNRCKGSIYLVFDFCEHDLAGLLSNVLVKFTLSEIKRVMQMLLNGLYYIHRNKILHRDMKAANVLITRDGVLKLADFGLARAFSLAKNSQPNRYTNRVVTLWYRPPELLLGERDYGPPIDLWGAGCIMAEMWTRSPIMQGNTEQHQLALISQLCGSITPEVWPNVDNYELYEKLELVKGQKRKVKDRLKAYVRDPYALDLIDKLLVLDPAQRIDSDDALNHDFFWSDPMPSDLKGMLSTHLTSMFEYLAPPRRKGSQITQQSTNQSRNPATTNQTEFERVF
Chain of CDK9-cyclin T1 (O60563 1-272 partner limits assumed): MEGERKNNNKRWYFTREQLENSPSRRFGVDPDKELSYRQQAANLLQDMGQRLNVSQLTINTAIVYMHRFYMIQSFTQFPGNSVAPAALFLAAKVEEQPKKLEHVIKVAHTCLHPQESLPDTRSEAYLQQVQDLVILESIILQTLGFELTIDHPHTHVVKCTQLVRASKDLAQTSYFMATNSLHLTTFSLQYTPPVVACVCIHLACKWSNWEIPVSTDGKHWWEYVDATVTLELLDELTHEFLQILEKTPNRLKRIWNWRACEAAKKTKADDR

CDK7-cyclin H-MAT1 = CDK7-cyclin H-MAT1 (Homo sapiens, UniProt P50613); format: biochemical; conditions: compared with THZ531
Chain of CDK7-cyclin H-MAT1 (P50613 whole entry): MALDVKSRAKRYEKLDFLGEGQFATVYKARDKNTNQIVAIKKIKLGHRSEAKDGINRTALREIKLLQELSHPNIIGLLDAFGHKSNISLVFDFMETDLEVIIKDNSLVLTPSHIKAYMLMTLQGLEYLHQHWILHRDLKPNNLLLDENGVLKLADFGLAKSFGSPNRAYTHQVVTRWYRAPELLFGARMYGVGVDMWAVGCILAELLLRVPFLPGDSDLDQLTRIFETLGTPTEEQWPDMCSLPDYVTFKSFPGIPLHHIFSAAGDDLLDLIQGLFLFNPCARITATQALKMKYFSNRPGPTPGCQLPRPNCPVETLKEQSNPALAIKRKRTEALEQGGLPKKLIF
Chain of CDK7-cyclin H-MAT1 (P51946 whole entry partner): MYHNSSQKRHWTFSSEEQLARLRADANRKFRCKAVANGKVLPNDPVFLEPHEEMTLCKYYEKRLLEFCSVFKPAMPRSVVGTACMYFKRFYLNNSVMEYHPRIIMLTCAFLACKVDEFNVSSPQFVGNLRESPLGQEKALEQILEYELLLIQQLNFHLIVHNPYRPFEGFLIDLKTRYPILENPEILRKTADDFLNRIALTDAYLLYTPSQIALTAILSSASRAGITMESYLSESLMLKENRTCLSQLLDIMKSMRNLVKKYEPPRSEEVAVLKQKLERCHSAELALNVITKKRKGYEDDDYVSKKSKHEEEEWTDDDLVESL
Chain of CDK7-cyclin H-MAT1 (P51948 whole entry partner): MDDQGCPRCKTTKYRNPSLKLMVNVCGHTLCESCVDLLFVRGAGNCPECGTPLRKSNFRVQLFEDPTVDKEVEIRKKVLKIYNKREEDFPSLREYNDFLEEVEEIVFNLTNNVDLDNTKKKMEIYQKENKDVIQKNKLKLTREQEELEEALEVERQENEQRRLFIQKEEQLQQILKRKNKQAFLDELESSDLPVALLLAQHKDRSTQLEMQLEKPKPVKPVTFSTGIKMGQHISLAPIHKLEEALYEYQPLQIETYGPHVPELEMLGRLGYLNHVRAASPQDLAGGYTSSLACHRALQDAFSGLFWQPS

CDK12-cyclin K = CDK12-cyclin K (Homo sapiens, UniProt Q9NYV4); format: biochemical; conditions: relative to THZ531
Chain of CDK12-cyclin K (Q9NYV4 696-1082 limits assumed): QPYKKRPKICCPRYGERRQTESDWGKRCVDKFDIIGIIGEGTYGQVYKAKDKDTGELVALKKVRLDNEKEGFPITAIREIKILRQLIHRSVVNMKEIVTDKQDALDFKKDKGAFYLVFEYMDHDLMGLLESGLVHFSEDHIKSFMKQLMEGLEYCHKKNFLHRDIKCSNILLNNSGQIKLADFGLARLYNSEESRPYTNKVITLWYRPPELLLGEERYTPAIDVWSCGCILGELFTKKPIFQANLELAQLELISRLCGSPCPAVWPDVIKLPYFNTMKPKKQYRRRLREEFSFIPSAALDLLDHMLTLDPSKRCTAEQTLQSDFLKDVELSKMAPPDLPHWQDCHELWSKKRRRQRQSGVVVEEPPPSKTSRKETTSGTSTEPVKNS
Chain of CDK12-cyclin K (O75909 1-267 partner limits assumed): as the sequence (O75909 1-267 partner limits assumed) above

[3] = system: Pol II CTD Ser2 phosphorylation; test: Pol II CTD phosphorylation immunoblot; format: cell-based, human; conditions: Jurkat cells, 6 hrs
[4] = system: Pol II CTD Ser2 phosphorylation; conditions: cited from earlier work
[5] = system: CDK12-cyclin K, CDK13-cyclin K and CDK7-cyclin H complexes; conditions: 1 µM biotinylated probe
CDK12- cyclin K complex = CDK12- cyclin K complex (Homo sapiens, UniProt Q9NYV4); test: mass spectrometry of protein-inhibitor complex; format: binding; conditions: 17 µM complex, 25 µM compound, overnight at 4°C
CDK12-cyclin K complexes = CDK12-cyclin K complexes (Homo sapiens, UniProt Q9NYV4); test: target-engagement assay; format: cell-based; conditions: competition with lysate-introduced bioTHZ1
Chain of CDK12-cyclin K complexes (Q9NYV4 whole entry): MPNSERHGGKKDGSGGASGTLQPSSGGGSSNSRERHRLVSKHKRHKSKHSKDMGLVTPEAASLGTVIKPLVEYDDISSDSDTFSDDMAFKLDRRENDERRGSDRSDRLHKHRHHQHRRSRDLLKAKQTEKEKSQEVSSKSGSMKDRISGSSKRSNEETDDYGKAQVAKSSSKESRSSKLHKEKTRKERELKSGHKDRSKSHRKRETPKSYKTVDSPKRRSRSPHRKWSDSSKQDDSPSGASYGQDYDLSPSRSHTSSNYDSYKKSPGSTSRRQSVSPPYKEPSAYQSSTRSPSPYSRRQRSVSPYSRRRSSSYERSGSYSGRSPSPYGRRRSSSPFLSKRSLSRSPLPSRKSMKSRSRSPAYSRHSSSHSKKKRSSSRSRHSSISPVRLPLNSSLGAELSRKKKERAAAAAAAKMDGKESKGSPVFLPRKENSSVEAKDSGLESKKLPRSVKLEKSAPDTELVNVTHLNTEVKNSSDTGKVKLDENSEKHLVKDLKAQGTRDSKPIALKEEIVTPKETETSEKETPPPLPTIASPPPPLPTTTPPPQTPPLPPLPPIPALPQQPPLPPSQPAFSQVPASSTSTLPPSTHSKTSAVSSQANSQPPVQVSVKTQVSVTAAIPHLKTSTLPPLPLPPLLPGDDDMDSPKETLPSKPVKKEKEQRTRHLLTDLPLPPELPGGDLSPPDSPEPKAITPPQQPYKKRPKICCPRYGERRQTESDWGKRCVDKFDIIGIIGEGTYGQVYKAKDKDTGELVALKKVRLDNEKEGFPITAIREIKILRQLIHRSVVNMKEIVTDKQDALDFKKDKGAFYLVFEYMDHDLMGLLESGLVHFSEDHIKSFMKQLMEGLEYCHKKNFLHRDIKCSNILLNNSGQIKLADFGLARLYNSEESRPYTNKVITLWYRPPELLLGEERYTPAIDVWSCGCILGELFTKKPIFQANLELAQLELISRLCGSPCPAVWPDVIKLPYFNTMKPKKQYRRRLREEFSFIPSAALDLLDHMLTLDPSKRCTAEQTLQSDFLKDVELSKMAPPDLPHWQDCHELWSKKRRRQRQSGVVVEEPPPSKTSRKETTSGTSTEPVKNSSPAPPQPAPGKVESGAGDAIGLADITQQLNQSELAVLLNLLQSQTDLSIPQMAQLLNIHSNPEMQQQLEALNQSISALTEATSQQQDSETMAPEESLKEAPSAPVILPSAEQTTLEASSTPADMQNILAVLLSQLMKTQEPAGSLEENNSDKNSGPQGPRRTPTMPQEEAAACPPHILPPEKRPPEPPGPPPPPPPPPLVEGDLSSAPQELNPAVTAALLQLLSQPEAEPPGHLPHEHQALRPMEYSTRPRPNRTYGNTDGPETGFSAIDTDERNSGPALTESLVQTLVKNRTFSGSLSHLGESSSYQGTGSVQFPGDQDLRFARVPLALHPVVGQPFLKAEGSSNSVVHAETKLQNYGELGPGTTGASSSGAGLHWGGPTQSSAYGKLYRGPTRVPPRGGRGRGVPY
Chain of CDK12-cyclin K complexes (O75909 whole entry partner): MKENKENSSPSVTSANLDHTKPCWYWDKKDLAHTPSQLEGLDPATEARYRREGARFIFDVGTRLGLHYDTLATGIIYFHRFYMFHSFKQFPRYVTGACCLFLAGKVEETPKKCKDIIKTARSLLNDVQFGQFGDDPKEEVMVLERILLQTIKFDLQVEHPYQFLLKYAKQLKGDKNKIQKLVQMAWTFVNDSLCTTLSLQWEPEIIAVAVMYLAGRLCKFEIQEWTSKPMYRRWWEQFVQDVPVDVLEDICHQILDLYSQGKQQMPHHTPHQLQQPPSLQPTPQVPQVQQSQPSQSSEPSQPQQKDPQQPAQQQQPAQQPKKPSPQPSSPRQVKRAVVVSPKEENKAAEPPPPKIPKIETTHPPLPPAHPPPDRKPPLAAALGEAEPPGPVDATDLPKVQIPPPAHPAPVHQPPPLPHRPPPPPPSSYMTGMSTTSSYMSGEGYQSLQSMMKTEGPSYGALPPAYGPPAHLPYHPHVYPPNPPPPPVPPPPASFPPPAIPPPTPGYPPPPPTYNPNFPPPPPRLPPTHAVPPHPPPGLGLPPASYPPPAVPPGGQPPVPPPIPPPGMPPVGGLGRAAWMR

HAP1 cells = test: HAP1 WT vs CDK12 C1039S proliferation assay; format: cell-based, human; conditions: 72 hours
[6] = system: pSer2 Pol II occupancy in Jurkat cells; test: pSer2 Pol II ChIP-seq; format: cell-based, human
ERK1 = ERK1 (Homo sapiens, UniProt P27361); test: kinase assay, control kinase; format: biochemical
CDK13 = CDK13 (Homo sapiens, UniProt Q14004); test: Ambit in vitro binding profiling
Jurkat cells = test: Annexin V / propidium iodide flow cytometry; format: cell-based, human
other 211 kinases = test: KiNativ intracellular kinase profiling; conditions: ATP-desthiobiotin probe
[7] = molecular target: human CDK12 residues 715-1052 (human, UniProt Q9NYV4-1 715-1052, THZ531 covalently bound to Cys-1039; phosphorylated (site not stated)); test: crystal structure

fold less active on CDK13 than THZ531 (CDK13-cyclin K): 50–100 fold | fold less active on CDK13 than THZ531 (CDK13-cyclin K; listed as reversible analog): more than 100 fold | inhibition activity on CDK9 (CDK9-cyclin T1): similarly–low–inhibition activity | inhibition activity on CDK7 (CDK7-cyclin H-MAT1): similarly–low–inhibition activity | fold less active on CDK12 than THZ531 (CDK12-cyclin K): 50–100 fold | fold less active on CDK12 than THZ531 (CDK12-cyclin K; listed as reversible analog): more than 100 fold
Molecule: CN(C)CCCC(=O)Nc1ccc(C(=O)N2CCC[C@@H](Nc3ncc(Cl)c(-c4c[nH]c5ccccc45)n3)C2)cc1 [THZ531R, (R)-N-(4-(3-((5-chloro-4-(1H-indol-3-yl)pyrimidin-2-yl)amino)piperidine-1-carbonyl)phenyl)-4-(dimethylamino)butanamide]
effect on steady-state mRNA levels [1]: decreased neither Ser2 phosphorylation nor steady-state mRNA levels | antiproliferative activity in Jurkat cells [2]: minimal antiproliferative activity | effect on Pol II CTD phosphorylation [3]: decreased neither Ser2 phosphorylation

Molecule: CN(C)C/C=C/C(=O)Nc1ccc(C(=O)Nc2cccc(Nc3ncc(Cl)c(-c4c[nH]c5ccccc45)n3)c2)cc1 [THZ1]
effect on Pol II CTD phosphorylation [4]: complete loss of Pol II CTD phosphorylation

Molecule: CN(C/C=C/C(=O)Nc1ccc(C(=O)Nc2cccc(Nc3ncc(Cl)c(-c4c[nH]c5ccccc45)n3)c2)cc1)CCCNC(=O)NCCOCCOCCOCCNC(=O)CCCC[C@@H]1SC[C@@H]2NC(=O)N[C@@H]21 [bioTHZ1, reference compound]
complexes pulled down [5]: pulls down CDK7, CDK12, and 13 complexes

inhibition activity on CDK9 (CDK9-cyclin T1): similarly–low–inhibition activity | inhibition activity on CDK7 (CDK7-cyclin H-MAT1): similarly–low–inhibition activity
Molecule: CN(C)C/C=C/C(=O)Nc1ccc(C(=O)N2CCC[C@H](Nc3ncc(Cl)c(-c4c[nH]c5ccccc45)n3)C2)cc1 [THZ532, (S,E)-N-(4-(3-((5-chloro-4-(1H-indol-3-yl)pyrimidin-2-yl)amino)piperidine-1-carbonyl)phenyl)-4-(dimethylamino)but-2-enamide]
effect on steady-state mRNA levels [1]: decreased neither Ser2 phosphorylation nor steady-state mRNA levels | antiproliferative activity in Jurkat cells [2]: minimal antiproliferative activity | effect on Pol II CTD phosphorylation [3]: decreased neither Ser2 phosphorylation

Molecule: CC1NC(=O)NC1CCCCCC(=O)NCCOCCOCCOCCNC(=O)CCN(C)C/C=C/C(=O)Nc1ccc(C(=O)N2CCC[C@@H](Nc3ncc(Cl)c(-c4c[nH]c5ccccc45)n3)C2)cc1 (stereo partly drawn) [bioTHZ531, N-((E)-20-((4-((R)-3-((5-chloro-4-(1H-indol-3-yl)pyrimidin-2-yl)amino)piperidine-1-carbonyl)phenyl)amino)-16-methyl-13,20-dioxo-3,6,9-trioxa-12,16-diazaicos-18-en-1-yl)-6-(5-methyl-2-oxoimidazolidin-4-yl)hexanamide]
complexes pulled down [5]: pulls down CDK12-cyclin K and CDK13-cyclin K complexes, but not CDK7-cyclin H complexes

Molecule: CN(C)C/C=C/C(=O)Nc1ccc(C(=O)N2CCC[C@@H](Nc3ncc(Cl)c(-c4c[nH]c5ccccc45)n3)C2)cc1 [THZ531, (R,E)-N-(4-(3-((5-chloro-4-(1H-indol-3-yl)pyrimidin-2-yl)amino)piperidine-1-carbonyl)phenyl)-4-(dimethylamino)but-2-enamide]
covalent binding to CDK12-cyclin K (CDK12- cyclin K complex): Near complete covalent binding | binding to intracellular CDK12-cyclin K vs CDK7-cyclin H (CDK12-cyclin K complexes): binds intracellular CDK12-cyclin K complexes with higher affinity than CDK7-cyclin H complexes | expression of core DDR genes BRCA1, FANCF, ERCC4 ([1]; 50 nM): substantial loss of expression | effect of CDK12 C1039S substitution on antiproliferative effect (HAP1 cells): partial restoration of cellular proliferation | pSer2 ChIP-seq signal ([6]; 50 nM): did not appreciably change pSer2 ChIP-seq signal | pSer2 ChIP-seq signal ([6]; 500 nM): dramatic decrease in 3’ end –associated pSer2 ChIP-seq signal | IC50 ([2]; Homo sapiens, Jurkat, 72 h, read-out: IC50 Jurkat cell proliferation): 50 nM | inhibitory effect on ERK1 (ERK1): no appreciable inhibitory effect | Ambit profiling score of CDK13 (CDK13): among the top scoring kinases | percentage of apoptotic cells over DMSO control (Jurkat cells; 50 nM, time course of the experiment): no increase in the percentage of apoptotic cells | annexin V-positively stained cells (Jurkat cells; higher doses (above 50 nM), by 72 hrs): 30–40% | effect on Pol II CTD phosphorylation [3]: selectively reduced Ser2 phosphorylation levels without appreciable effect on CTD pSer5/pSer7 levels | labeling of the other 211 kinases (not CDK12 and 13) (other 211 kinases): ≤ 55%

binding result [7]: binds
B1: human cyclin K residues 11-267 (domain or fragment, UniProt O75909 11-267, looked up)
chain: SVTSANLDHTKPCWYWDKKDLAHTPSQLEGLDPATEARYRREGARFIFDVGTRLGLHYDTLATGIIYFHRFYMFHSFKQFPRYVTGACCLFLAGKVEETPKKCKDIIKTARSLLNDVQFGQFGDDPKEEVMVLERILLQTIKFDLQVEHPYQFLLKYAKQLKGDKNKIQKLVQMAWTFVNDSLCTTLSLQWEPEIIAVAVMYLAGRLCKFEIQEWTSKPMYRRWWEQFVQDVPVDVLEDICHQILDLYSQGKQQMPH
